Source: patent US10238638B2, “Benzothiazole and benzothiophene compounds” (Bristol-Myers Squibb Company, priority 2015, dated 2019)

Biological target: PAR4 (Homo sapiens (Human), UniProt Q96RI0)
Sequence (Q96RI0 18-385): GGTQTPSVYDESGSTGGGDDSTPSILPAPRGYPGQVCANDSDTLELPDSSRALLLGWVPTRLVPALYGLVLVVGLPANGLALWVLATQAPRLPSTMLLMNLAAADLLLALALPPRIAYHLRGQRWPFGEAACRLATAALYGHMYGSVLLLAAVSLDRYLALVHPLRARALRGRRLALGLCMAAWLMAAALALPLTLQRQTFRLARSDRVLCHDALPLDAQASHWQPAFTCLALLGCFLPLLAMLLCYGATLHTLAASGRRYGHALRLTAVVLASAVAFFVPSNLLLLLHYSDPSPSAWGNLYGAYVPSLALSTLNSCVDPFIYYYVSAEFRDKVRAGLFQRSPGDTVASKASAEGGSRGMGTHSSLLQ
Experiment: FLIPR assay in PAR4-expressing HEK293 cells (calcium mobilization)
Type: cell-based
Details: H-Ala-Phe(4-F)-Pro-Gly-Trp-Leu-Val-Lys-Asn-Gly-NH2-induced calcium mobilization, PAR4 antagonist activity
From the text: The FLIPR assay is an exemplary in vitro assay for measuring the activity of the PAR4 antagonists of the present invention. In this assay, intracellular calcium mobilization is induced in PAR4 expressing cells by a PAR4 agonist and calcium mobilization is monitored.
HEK293 cells stably expressing PAR4 were generated by a standard method of transfection of human PAR4 (F2R23) cDNA expression vector and selected based on PAR4 protein expression or mRNA expression. […] Therefore, the same cells were also used to determine selectivity against PAR1 and agonist activity for both receptors.
FLIPR-based calcium mobilization assay in HEK293 cells was used to measure PAR4 antagonism, agonism, and selectivity against PAR1. […] Counter screens for agonist activity and PAR1 antagonist activity were also performed. Briefly, PAR1/PAR4-expressing HEK293 cells were grown in DMEM (Life Technology, Grand Island, N.Y.) containing 10% heat-inactivated FBS, 1% Penicillin-Streptomycin, 10 μg/mL blasticidin, and 100 μg/mL Zeocin at 37° C. with 5% CO2. Cells were plated overnight prior to the experiment in a black 384-well Purecoat Amine clear bottom plate (Becton Dickinson Biosciences, San Jose, Calif.) at 10,000 cells/well in 30 μL growth medium and incubated in a humidified chamber at 37° C. with 5% CO2 overnight. Prior to compound addition, the cell medium was replaced with 40 μL of 1× calcium and magnesium-containing Hank's Balanced Saline Solution (HBSS) (with 20 mM HEPES) and 1:1000 diluted fluorescent calcium indicator (Codex Biosolutions, Gaithersburg, Md.). After a 30 minute incubation period at 37° C. and a further 30 minute incubation and equilibration period at room temperature, 20 μL test compound (diluted in 1×HBSS buffer) was added at various concentrations at 0.17% dimethyl sulfoxide (DMSO) final concentration. Changes in fluorescence intensity were measured using a Functional Drug Screening System (FDSS, Hamamatsu, Japan) to determine agonist activities. The cells were then incubated for 30 minutes at room temperature followed by addition of 20 μL of agonist peptide for antagonist activity measurement. […] Compound potency was derived from 11-point concentration-response curves.
`COc1cc(OCc2csc(-c3ccccc3)n2)c2sc(-c3cn4nc(C)ccc4n3)nc2c1` [Example 45, 5-Methoxy-2-(6-methylimidazo[1,2-b]pyridazin-2-yl)-7-((2-phenylthiazol-4-yl)methoxy)benzo[d]thiazole] gave an IC50 of 1.8 µM.
Molecule `COc1cc(OCc2csc(-c3ccc(C(=O)O)cc3)n2)c2sc(-c3cn4nc(C)sc4n3)nc2c1` [Example 2, 4-(4-(((5-Methoxy-2-(2-methylimidazo[2,1-b][1,3,4]thiadiazol-6-yl)benzo[d]thiazol-7-yl)oxy)methyl)thiazol-2-yl)benzoic acid] has an IC50 of 45 µM.
In the case of `COc1cc(OCc2csc(-c3ccc(C(=O)N(C)C)cc3)n2)c2sc(-c3cn4nc(C5CC5)sc4n3)nc2c1` [Example 28, 4-(4-(((2-(2-Cyclopropylimidazo[2,1-b][1,3,4]thiadiazol-6-yl)-5-methoxybenzo[d]thiazol-7-yl)oxy)methyl)thiazol-2-yl)-N,N-dimethylbenzamide], the IC50 is reported as 3.7 µM.
For `CCc1nn2cc(-c3nc4cc(OC)cc(OCc5csc(-c6ccc(C(=O)N(C)[C@H]7CCOC7)cc6)n5)c4s3)nc2s1` [Example 34, (S)-4-(4-(((2-(2-Ethylimidazo[2,1-b][1,3,4]thiadiazol-6-yl)-5-methoxybenzo[d]thiazol-7-yl)oxy)methyl)thiazol-2-yl)-N-methyl-N-(tetrahydrofuran-3-yl)benzamide], the IC50 was 1.3 µM.
Work on `COc1cc(OCc2csc(-c3ccc(C(=O)N(C)[C@H]4CCOC4)cc3)n2)c2sc(-c3cn4nc(C)sc4n3)nc2c1` [Example 3, (S)-4-(4-(((5-methoxy-2-(2-methylimidazo[2,1-b][1,3,4]thiadiazol-6-yl)benzo[d]thiazol-7-yl)oxy)methyl)thiazol-2-yl)-N-methyl-N-(tetrahydrofuran-3-yl)benzamide] yielded an IC50 of 3.6 µM.
Molecule `COc1cc(OCc2csc(-c3ccc(C(=O)N4CCC[C@H](O)C4)cc3)n2)c2sc(-c3cn4nc(C)sc4n3)nc2c1` [Example 4] has an IC50 of 4.2 µM.
Molecule `COc1cc(OCc2csc(-c3ccc(C(=O)N(C)C4CCOCC4)cc3)n2)c2sc(-c3cn4nc(C)sc4n3)nc2c1` [Example 10, 4-(4-(((5-Methoxy-2-(2-methylimidazo[2,1-b][1,3,4]thiadiazol-6-yl)benzo[d]thiazol-7-yl)oxy)methyl)thiazol-2-yl)-N-methyl-N-(tetrahydro-2H-pyran-4-yl)benzamide] has an IC50 of 0.98 µM.
`CCc1nn2cc(-c3nc4cc(OC)cc(OCc5csc(-c6ccc(C(=O)N(C)C)cc6)n5)c4s3)nc2s1` [Example 35, 4-(4-(((2-(2-Ethylimidazo[2,1-b][1,3,4]thiadiazol-6-yl)-5-methoxybenzo[d]thiazol-7-yl)oxy)methyl)thiazol-2-yl)-N,N-dimethylbenzamide] gave an IC50 of 1.2 µM.
Molecule `COc1cc(OCc2csc(-c3ccc(C(=O)N4CCOC[C@@H]4CO)cc3)n2)c2sc(-c3cn4nc(C)sc4n3)nc2c1` [Example 11, (S)-(3-(Hydroxymethyl)morpholino)(4-(4-(((5-methoxy-2-(2-methylimidazo[2,1-b][1,3,4]thiadiazol-6-yl)benzo[d]thiazol-7-yl)oxy)methyl)thiazol-2-yl)phenyl)methanone] has an IC50 of 1.4 µM.
`COc1cc(OCc2csc(-c3ccc(C(=O)N(C)C4CCOCC4)cc3)n2)c2sc(-c3cn4nc(C(C)(F)F)sc4n3)nc2c1` [Example 22, 4-(4-(((2-(2-(1,1-Difluoroethyl)imidazo[2,1-b][1,3,4]thiadiazol-6-yl)-5-methoxybenzo[d]thiazol-7-yl)oxy)methyl)thiazol-2-yl)-N-methyl-N-(tetrahydro-2H-pyran-4-yl)benzamide] gave an IC50 of 0.76 µM.
In the case of `COc1cc(OCc2csc(-c3ccc(C(=O)N4CCOC[C@H]4CO)cc3)n2)c2sc(-c3cn4nc(C)sc4n3)nc2c1` [Example 9, (R)-(3-(Hydroxymethyl)morpholino)(4-(4-(((5-methoxy-2-(2-methylimidazo[2,1-b][1,3,4]thiadiazol-6-yl)benzo[d]thiazol-7-yl)oxy)methyl)thiazol-2-yl)phenyl)methanone], the IC50 is reported as 0.33 µM.
Molecule `COc1cc(OCc2csc(-c3ccc(C(=O)O)cc3)n2)c2sc(-c3cn4nc(C(C)(F)F)sc4n3)nc2c1` [Example 14, 4-(4-(((2-(2-(1,1-Difluoroethyl)imidazo[2,1-b][1,3,4]thiadiazol-6-yl)-5-methoxybenzo[d]thiazol-7-yl)oxy)methyl)thiazol-2-yl)benzoic acid] has an IC50 of 87 µM.
Work on `COc1cc(OCc2csc(-c3ccc(C(=O)N(C)[C@H]4CCOC4)cc3)n2)c2sc(-c3cn4nc(C(C)(F)F)sc4n3)nc2c1` [Example 15, (S)-4-(4-(((2-(2-(1,1-Difluoroethyl)imidazo[2,1-b][1,3,4]thiadiazol-6-yl)-5-methoxybenzo[d]thiazol-7-yl)oxy)methyl)thiazol-2-yl)-N-methyl-N-(tetrahydrofuran-3-yl)benzamide] yielded an IC50 of 3.7 µM.
Work on `COc1cc(OCc2csc(-c3ccc(C(=O)N(C)C)cc3)n2)c2sc(-c3cn4nc(C)sc4n3)nc2c1` [Example 6, 4-(4-(((5-Methoxy-2-(2-methylimidazo[2,1-b][1,3,4]thiadiazol-6-yl)benzo[d]thiazol-7-yl)oxy)methyl)thiazol-2-yl)-N,N-dimethylbenzamide] yielded an IC50 of 3.8 µM.
With `COc1cc(OCc2csc(-c3ccc(C(=O)N(C)[C@H]4CCOC4)cc3)n2)c2sc(-c3cn4nc(C5CC5)sc4n3)nc2c1` [Example 25, (S)-4-(4-(((2-(2-Cyclopropylimidazo[2,1-b][1,3,4]thiadiazol-6-yl)-5-methoxybenzo[d]thiazol-7-yl)oxy)methyl)thiazol-2-yl)-N-methyl-N-(tetrahydrofuran-3-yl)benzamide] the IC50 was 2.6 µM.
With `COc1cc(OCc2csc(-c3ccc(C(=O)N(C)CC#N)cc3)n2)c2sc(-c3cn4nc(C5CC5)sc4n3)nc2c1` [Example 27, N-(Cyanomethyl)-4-(4-(((2-(2-cyclopropylimidazo[2,1-b][1,3,4]thiadiazol-6-yl)-5-methoxybenzo[d]thiazol-7-yl)oxy)methyl)thiazol-2-yl)-N-methylbenzamide] the IC50 was 1.2 µM.
Work on `COc1cc(OCc2csc(-c3ccc(C(=O)N(CCO)C(C)(C)C)cc3)n2)c2sc(-c3cn4nc(C5CC5)sc4n3)nc2c1` [Example 29, N-(tert-Butyl)-4-(4-(((2-(2-cyclopropylimidazo[2,1-b][1,3,4]thiadiazol-6-yl)-5-methoxybenzo[d]thiazol-7-yl)oxy)methyl)thiazol-2-yl)-N-(2-hydroxyethyl)benzamide] yielded an IC50 of 80 µM.
With `COc1cc(OCc2csc(-c3ccc(C(=O)N(C)C)cc3)n2)c2sc(-c3cn4nc(C(C)(F)F)sc4n3)nc2c1` [Example 18, 4-(4-(((2-(2-(1,1-difluoroethyl)imidazo[2,1-b][1,3,4]thiadiazol-6-yl)-5-methoxybenzo[d]thiazol-7-yl)oxy)methyl)thiazol-2-yl)-N,N-dimethylbenzamide] the IC50 was 5.1 µM.

Biological target: PAR1 (Homo sapiens (Human), UniProt P25116)
Sequence (P25116 22-425): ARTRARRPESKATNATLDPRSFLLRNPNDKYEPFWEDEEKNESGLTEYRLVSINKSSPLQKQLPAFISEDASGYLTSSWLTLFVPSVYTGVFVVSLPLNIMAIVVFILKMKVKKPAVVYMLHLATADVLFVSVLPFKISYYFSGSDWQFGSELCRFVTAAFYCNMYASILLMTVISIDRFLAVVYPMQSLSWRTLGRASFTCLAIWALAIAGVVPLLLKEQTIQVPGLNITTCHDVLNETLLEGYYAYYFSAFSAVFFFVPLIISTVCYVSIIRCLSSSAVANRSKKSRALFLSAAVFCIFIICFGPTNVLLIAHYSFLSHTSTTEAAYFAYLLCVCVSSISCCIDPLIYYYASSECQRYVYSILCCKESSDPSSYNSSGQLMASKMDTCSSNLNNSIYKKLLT
Experiment: not given
Details: ACS patients, phase III; cited from earlier work
For `CCOC(=O)N[C@@H]1CC[C@@H]2[C@@H](C1)C[C@H]1C(=O)O[C@H](C)[C@H]1[C@H]2/C=C/c1ccc(-c2cccc(F)c2)cn1` [vorapaxar], the cardiovascular events is listed as “did not significantly reduce” and the “risk of major bleeding” value is listed as “significantly increased”.
